From patent US8735384B2, “Amino heteroaryl compounds as beta-secretase modulators and methods of use” (Amgen Inc., priority 2010, dated 2014) come the findings set out here.

The structures appear in SMILES notation. Some results are limits rather than exact numbers.

One assay has as its target BACE1 (Homo sapiens, UniProt P56817). Briefly: In vitro enzymatic BACE FRET assay. It is filed as biochemical. The conditions noted are these: beta secretase enzyme 0.2 nM, FRET substrate 50 nM, pH 4.2; read-out: BACE1 FRET assay (IC50 class). In a few lines:
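Beta-secretase (0.2 nM) was pre-incubated 1 h with serially diluted inhibitor in 0.05 M acetate pH 4.2, 10% DMSO, 100 uM genapol. Then 50 nM quenched peptide FRET substrate was added for 1 h. The reaction was stopped with Tris to neutral pH and fluorescence read ([…]).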

For assay [1], the system named is Aβ40 in conditioned medium of cells stably expressing Amyloid Precursor Protein (APP). Kind of assay: In vitro BACE cell-based assay (HEK cell assay), Aβ40 sandwich ELISA. Particulars: Homo sapiens, HEK293, 24 h, inhibition of Aβ40, 24 h incubation, read-out: HEK cell assay (IC50 class). In a few lines: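 APP-stably expressing cells (40K/well) grown 24 h, then treated 24 h with 10-point doses from 100 μM or 10 μM top (0.1% DMSO). Secreted Aβ40 quantified by sandwich ELISA (pAb40 capture, biotinylated 6E10 detection, europium time-resolved fluorescence); IC50 from percent inhibition versus concentration.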
In general terms: An ELISA detects its analyte on a solid surface through an enzyme-linked reagent.

Sequence of BACE1 (P56817 46-501, species assumed): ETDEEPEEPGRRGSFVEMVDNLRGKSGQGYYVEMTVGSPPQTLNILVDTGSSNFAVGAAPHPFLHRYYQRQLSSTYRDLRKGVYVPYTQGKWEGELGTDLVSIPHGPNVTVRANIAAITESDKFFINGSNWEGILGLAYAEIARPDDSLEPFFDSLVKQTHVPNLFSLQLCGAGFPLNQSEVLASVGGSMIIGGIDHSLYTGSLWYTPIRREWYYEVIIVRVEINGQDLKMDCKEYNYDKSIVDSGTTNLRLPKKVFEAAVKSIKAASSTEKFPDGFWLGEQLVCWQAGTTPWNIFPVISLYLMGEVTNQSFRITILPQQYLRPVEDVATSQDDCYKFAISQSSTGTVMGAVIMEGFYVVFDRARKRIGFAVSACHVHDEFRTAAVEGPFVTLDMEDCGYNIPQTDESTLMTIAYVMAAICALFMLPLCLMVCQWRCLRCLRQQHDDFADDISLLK

One may read the IC50 as the point on the concentration scale where inhibition reaches its midpoint. For the compound `Cc1cccc(C(=O)N2CCCC2)c1-c1ccc2nc(N)c(C3CCCO3)cc2c1` (centres unmarked) [Example 207, (2-(2-amino-3-(tetrahydrofuran-2-yl)quinolin-6-yl)-3-methylphenyl)(pyrrolidin-1-yl)methanone], the IC50 on BACE1 was 100 to 500 nM; in assay [1], 1010 to 5000 nM.

Take `Cc1cccc(C(=O)N2CC(F)(F)C2)c1-c1ccc2nc(N)c(N3CCOCC3)cc2c1` [Example 99, (2-(2-amino-3-morpholinoquinolin-6-yl)-3-methylphenyl)(3,3-difluoroazetidin-1-yl)methanone]: the figures for the IC50 (at BACE1; in assay [1]) were 100 to 500 nM and 501 to 1000 nM, respectively.

Take `Cc1cccc(C(=O)N2CCCC2)c1-c1ccc2nc(N)c(N3CCCC3)cc2c1` [Example 60, (2-(2-amino-3-(pyrrolidin-1-yl)quinolin-6-yl)-3-methylphenyl)(pyrrolidin-1-yl)methanone]: the IC50 fell in the range of 100 to 500 nM on BACE1 and 1010 to 5000 nM in assay [1].

For the compound `COc1cccc(Cc2cccc(C)c2-c2ccc3nc(N)c(N4CCOCC4)cc3c2)c1` [Example 203, 6-(2-(3-methoxybenzyl)-6-methylphenyl)-3-morpholinoquinolin-2-amine], the concentration for half-maximal inhibition (IC50) on BACE1 was under 100 nM; in assay [1], over 5000 nM.

Regarding `COc1ccc(C(=O)c2cccc(C)c2-c2ccc3nc(N)c(N4CCOCC4)cc3c2)cc1` [Example 175, (2-(2-amino-3-morpholinoquinolin-6-yl)-3-methylphenyl)(4-methoxyphenyl)methanone], the IC50 was under 100 nM at BACE1 and 1010 to 5000 nM in assay [1].

As for `Cc1cccnc1C(N)c1cccc(C)c1-c1ccc2nc(N)c(N3CCOCC3)cc2c1` (centres unmarked) [Example 194, 6-(2-(amino(3-methylpyridin-2-yl)methyl)-6-methylphenyl)-3-morpholinoquinolin-2-amine], the values for the IC50 (at BACE1; in assay [1]) were 501 to 1000 nM and 100 to 500 nM, respectively.

For `Cc1cccc(C(=O)N2CCCCC2C)c1-c1ccc2nc(N)c(N3CCOCC3)cc2c1` (centres unmarked) [Example 87, (2-(2-amino-3-morpholinoquinolin-6-yl)-3-methylphenyl)(2-methylpiperidin-1-yl)methanone], the results for the IC50 (on BACE1; in assay [1]) were under 100 nM and 501 to 1000 nM, respectively.

`CCCC(=N)c1cccc(C)c1-c1ccc2nc(N)c(N3CCOCC3)cc2c1` [Example 14, 6-(2-(1-iminobutyl)-6-methylphenyl)-3-morpholinoquinolin-2-amine]: the IC50 on BACE1 was 100 to 500 nM; in assay [1], over 5000 nM.

As to `Cc1cccc(C(=O)N2CCCC2)c1-c1cc2cc(N3CCOCC3)c(N)nc2cc1F` [Example 39, (2-(2-amino-7-fluoro-3-morpholinoquinolin-6-yl)-3-methylphenyl)(pyrrolidin-1-yl)methanone], the IC50 at BACE1 was under 100 nM; in assay [1] it was 501 to 1000 nM.

For the compound `COCCC1CN(c2cc3cc(-c4c(C)cccc4C(=O)N4CCCC4)ccc3nc2N)CCO1` (centres unmarked) [Example 214, (2-(2-amino-3-(2-(2-methoxyethyl)morpholino)quinolin-6-yl)-3-methylphenyl)(pyrrolidin-1-yl)methanone], the IC50 is under 100 nM on BACE1 and 100 to 500 nM in assay [1].

With `Nc1nc2ccc(-c3ccccc3C(=O)C3CCCC3)cc2cc1N1CCOCC1` [Example 149, (2-(2-amino-3-morpholinoquinolin-6-yl)phenyl)(cyclopentyl)methanone], the IC50 at BACE1 was 100 to 500 nM; in assay [1], over 5000 nM.

Regarding `Cc1cccc(C2NCCc3ccccc32)c1-c1ccc2nc(N)c(N3CCOCC3)cc2c1` (centres unmarked) [Example 10, 6-(2-methyl-6-(1,2,3,4-tetrahydroisoquinolin-1-yl)phenyl)-3-morpholinoquinolin-2-amine], the concentration for half-maximal inhibition (IC50) at BACE1 was in the range of 1010 to 5000 nM; in assay [1], 100 to 500 nM.

Take `Cc1cccc(Cc2cccc(C#N)c2)c1-c1ccc2nc(N)c(N3CCOCC3)cc2c1` [Example 200, 3-(2-(2-amino-3-morpholinoquinolin-6-yl)-3-methylbenzyl)benzonitrile]: the half-maximal inhibitory concentration (IC50) on BACE1 was under 100 nM; in assay [1], 1010 to 5000 nM.
